The record followed here is patent US12433892B2, “Compositions and methods of treatment for neurological disorders comprising depression” (Gliapharm SA, priority 2018, dated 2025).

Where a name gives a salt, the structure may show the parent alone.

The subject of data set [1] is astrocytes. Briefly: Intracellular glycogen quantification. The class given is cell-based, mouse. Conditions: Prestwick hits; 10 uM, 3 h. As to the method:
For glycogen dosage, a protein dosage was first performed in order to assess whether harvested astrocytes from primary cell cultures yielded enough and equivalent amounts of proteins comparing each replicate, and to ensure that the obtained differences in glycogen quantities were due to drug action and not to inner protein quantities.
Astrocytes used for these dosages were previously grown in 6-well plates for 17 days and stimulated with Vehicle (DMSO) or drug of interest (1 μM to 100 μM) for 180 min, at 37° C. 5% CO2/95% air in D5030 complete medium. Medium was removed and replaced with 600 μl of 30 mM Tris HCl, and stored at −20° C.
Proteins were dosed using the micro BCA Protein Assay kit (Thermo Scientific), as described in the manufacturer's instructions. Briefly, thawed cells were sonicated and 5 μl aliquots were placed in a transparent 96-well plate, to which we added 25 μl 30 mM Tris HCl, 70 μl H2O and 100 μl of a BCA mix (made as described in manufacturer's guidelines). After a 120 min-incubation at 37° C., absorbance was measured with Safire 2 spectrophotometer at a wavelength of 562 nm, and protein quantities were determined from a standard curve of Bovine Serum Albumin (BSA).
Glycogen was quantified using a 250 μl-aliquot of the same stimulated, thawed, and sonicated cells. After an incubation period of 30 min at 90° C. and 400 rpm, 28 μl of an acetic acid/sodium acetate (both from Sigma) 0.1M pH 4.6 buffer was added to each aliquot, which was then separated in two. Each split aliquot received whether 5 μl of amyloglucosidase (Roche) or 5 μl H2O, and all cell solutions were incubated for 120 min in a shaking 37° C.-waterbath. After a centrifugation at 16'000 G for 5 min, 20 μl of supernatant were placed 96-well plate, to which 150 μl of a mix containing 0.67 mM ATP (Roche), 0.67 mM NADP (Roche), 1.8% hexokinase/glucose-6-phosphate dehydrogenase (Roche) and 0.1M Tris Buffer-HCl/3.3 mM magnesium (Fluka)/pH 8.1 buffer was added. Fluorescence was measured with Safire 2 spectrophotometer (340 nm excitation/440 nm emission). Glycogen concentration was obtained by subtracting glucose value of samples with amyloglucosidase to samples without amyloglucosidase, and were expressed relative to the amount of proteins previously determined.
Levels of intracellular glycogen in astrocytes were measured at 3 h after stimulation with 20 hits from the Prestwick library (10 μM each), as shown in FIG. 2. n=6-10; Ctrl pos. is glutamate (0.5 mM). Statistical analysis consisted in ANOVA followed by Fisher LSD post-hoc test for pair-wise comparisons.
Statistical analysis consisted in ANOVA followed by Fisher LSD post-hoc test for pair-wise comparisons.

Another data set has as its system C57Bl/6 female mice. Conditions: 100 mg/kg single per os, 14 days monitoring. How it is done: The compound was administered at 10 mg/kg.
In vivo acute toxicity was assessed with a starting maximal concentration of 100 mg/kg. […] Groups of 6-8 female mice were monitored for 14 days after single oral administration of the drug, weighted every day, and a macroscopic histological examination was performed at the end of the experiment. Clinical evaluation included the observation of mice' ability to feed, hydrate, notification of any visible pain, unusual grooming or respiration, blood loss, evidence of microbial infection, and/or significant loss of weight.
For this period, mice were weighted and clinically monitored (feeding, hydration, pain, grooming, respiration, blood loss, microbial infection). At the end of the 14-day evaluation, mice were sacrificed and high level organ analysis was performed. Drugs were always administered per os (gavage) in solution composed of Methocel 4KM 0.4%, Tween 0.25%.

The next data set concerns cerebral glycogen. Nature of the data set: In vivo pharmacodynamics: glycogen levels in prefrontal cortex. On the set-up: species or system mouse. Conditions: 10 mg/kg. The text has this:
To measure intracerebral levels of glycogen, mice were euthanized at different time points after drug administration, using a microwave beam (1 sec, 6 kW) focused directly on mice brains. This method of fixation results in the rapid inhibition of enzymatic reactions, thereby preserving intact metabolic state in the brain of euthanized animals. Glycogen concentration was quantified using standard biochemical procedure. Groups of 8 male mice were used for each condition.
Glycogen levels were measured in microwave-fixed PFC (prefrontal cortex, 6 kW, 1 sec), which ensures enzymatic inhibition and stops glycogen degradation. Samples were then flash frozen before dosage.
First, glycogen levels were analyzed at 1 h, 3 h and 6 h after drug administration. […] This time point was subsequently used for dose-response experiments. Glycogen levels were quantified at 3H after administration with GP-01 to GP-07 at 1, 10 or 100 mg/kg.

The test system of another data set is primary astrocytes. Briefly: Intracellular glycogen quantification, Example 2. Conditions: 10 μM, 3 h (GP-0157: 0.1, 1, 10 μM). The class given is cell-based, mouse. How it is done:
To assess for the effect of the compounds of the invention, those were tested in primary astrocytes, as described below. Secretion of lactate was measured directly in the extracellular medium, and indirectly through the acidification of extracellular medium using extracellular pH sensor SNARE-5F-(AND-6)-CAR (SNARF5). Glucose uptake was measured by quantification 2-deoxyglucose in the cell. Cell Cultures Primary cultures of cerebrocortical astrocytes were obtained from 1 to 2-day-old OF1 mouse pups (Charles River). Briefly, cortices were isolated and minced in small pieces under a dissecting microscope. The cells were incubated for 30 min at 37° C. in a solution containing 20 U/ml papain, 1 mM L-cysteine and 10 kU/ml DNase I. After dissociation, papain activity was stopped by the addition of fetal calf serum (FCS). Single-cell suspension was then obtained by mechanical dissociation, which consisted in cells trituration in a DMEM D7777 medium supplemented with 44 mm NaHCO3, 10 ml/L antibiotic/antimycotic solution and 10% FCS. The cells were seeded at an average density of ˜10'000 cells/cm2 on poly-D-lysine coated 96- or 12-well culture plates, depending on their use, and grown in DMEM D7777 medium supplemented with 44 mm NaHCO3, 10 ml/L antibiotic/antimycotic solution and 10% FCS at 37° C. in a humidified atmosphere containing 5% CO2/95% air. Culture medium was renewed twice a week. Cells were stimulated and harvested between DIV14 and DIV17, when confluence and cell growth were optimal. Extracellular Medium Acidification (SNARF5) Secretion of lactate was measured indirectly through the acidification of extracellular medium using extracellular pH sensor […] (SNARF5). After washing cells twice with stimulation medium (DMEM (D5030, Sigma), 1 mM NaHCO2, and 5 mM Glucose, pH 7.4) at 37° C., cells were stimulated with compounds at a final concentration ranging from 10 nM to 30 μM in 50 μl per well of stimulation medium supplemented with 10 μM of SNARF5 (Life Technologies Corporation). Each compound was tested in two different plates for duplicates. After 90 min stimulation, fluorescence was read at exc. (excitation) 480 nm/emm. (emission) 580 nm and at exc 480 nm/emm. 630 nm. The ratio of fluorescence between 630 nm and 580 emission values, which is proportional to extracellular pH, was calculated. In each plate, 8 wells were used for negative controls (DMSO 0.1%) and 8 wells were used for positive controls (CCCP 2 μM in DMSO). The extracellular medium acidification in primary mouse astrocytes treated with GP-A1 was quantified (FIG. 13). Extracellular medium acidification was measured over a period of 1.5 h and 3 h. […] Extracellular Lactate Quantification Secretion of L-lactate was measured in the extracellular medium of 96-well plated astrocytes after 90 min stimulation (at 37° C., in 5% CO2/95% air conditions) with Vehicle (DMSO), the compounds of the invention (100 nM to 100 μM) or positive control. […] Stimulation medium was composed of D5030 medium complemented with 5 mM D-glucose and 44 mM sodium bicarbonate, pH 7.2. To quantify lactate concentrations in the extracellular medium, 200 μl of a 0.2M Glycine-semicarbazide buffer (pH 10) containing 3 mM NAD and 14 U/ml LDH was added to each well of a 96-well plate containing 30 μl aliquots of extracellular medium. Samples were incubated at 37° C. for 1 h. Fluorescence intensity (340 nm excitation/450 nm emission), which represents the amount of NADH produced, was measured, and lactate concentration values were determined relative to a standard curve of L-lactate concentrations. The release of lactate from primary mouse astrocytes treated with GP-A1 was quantified (FIG. 5A and FIG. 14). Accumulation of lactate in the extracellular medium was measured over a period of 1.5 h. […] Intracellular Glycogen Quantification Astrocytes grown on 12-well plates were used for intracellular glycogen quantifications. […]

Data set [2] deals with astrocytes. Briefly: Intracellular glycogen quantification. Conditions: CDC54K hits; 10 uM, 3 h. The data set is classed as cell-based, mouse.
Data set [3] deals with C57Bl/6 male and female mice. Briefly: In vivo chronic toxicity (28 days). Conditions: chronic administration 10 mg/kg; treatment interrupted. As to the method: During this period, clinical symptoms and weight were recorded.
Chronic toxicity was assessed.

The subject of data set [4] is C57Bl/6 male and female mice. Briefly: Anxiety in elevated plus maze (EPM) after chronic treatment. The class given is in vivo, mouse. Conditions: end of 28-day chronic treatment, 10 mg/kg. How it is done:
Total distance, frequency of entry and duration in the open arms were measured using Ethovision automatic scoring; n>10;

In data set [5] the test system is cerebral extracellular lactate. Nature of the data set: In vivo pharmacodynamics: lactate biosensors in cortex. Conditions: 10 mg/kg per os. On the set-up: species or system mouse. How it is done:
Extracellular levels of lactate were monitored in vivo using lactate biosensors (Pinnacle Technology), according to the manufacturer's instructions. Cannulae were surgically implanted in mice cerebral cerebral motor cortex areas M1/M2 (coordinates: +1.94 mm (to bregma), lateral −1.4 mm (to mideline), ventral −1.0 mm (to dura)) 5-7 days before administration of the compounds. Drugs were administered per os as previously described, and cerebral levels of extracellular lactate were dynamically recorded for 6 hours. Mice were administered vehicle alone first, followed 3 hours later by vehicle or drug (10 or 100 mg/kg). Area Under the Curve (AUC) quantifying the fluctuations of extracellular lactate concentrations for each of the compound tested was calculated using Graphad Prism and the ratio of AUC after drug over Vehicle administration was calculated. Groups of 8 male mice were used for each condition.
To measure biological effect of lead molecules in vivo in the brain, lactate levels were quantified after administration of the drug by using lactate biosensors implanted in the cortex of freely moving mice.

Consider `[H]/N=C(\N/C(=N/[H])Nc1ccc(Cl)cc1)NC(C)C` [Proguanil hydrochloride], for which, in the data set with astrocytes [1], the “Glycogen (statistical significance of glycogen degradation)” value is “*** (***p<0.001)”. In addition, the “acute toxicity (toxic or not)” value with C57Bl/6 female mice is on record as “toxic”. The PD effect entry in the data set on cerebral glycogen is listed as “did not show good PD effect”.

Consider `COc1ccc(Nc2nc(N3CCOCC3)c3ccccc3n2)cc1.Cl` [T0508-5190], for which the “mobilization of intracellular glycogen” value in the data set on primary astrocytes was “significantly enhance the mobilization of intracellular glycogen”. Moreover, in the data set on astrocytes [2], the “Glycogen (statistical significance of glycogen degradation)” value was “** (**p<0.01)”.

For the molecule `O=S(=O)(Nc1cc(F)cc(F)c1)c1ccc2ccccc2c1` [T5884038], the “mobilization of intracellular glycogen” value in the data set on primary astrocytes is “significantly enhance the mobilization of intracellular glycogen”. In addition, the “Glycogen (statistical significance of glycogen degradation)” value in the data set with astrocytes [2] is listed as “**** (****p<0.0001)”.

Turning to `C#C[C@]1(O)CC[C@H]2[C@@H]3[C@H](C)CC4=C(CCC(=O)C4)[C@H]3CC[C@@]21C` [Tibolone], the “Glycogen (statistical significance of glycogen degradation)” value in the data set on astrocytes [1] is “*** (***p<0.001)”. Also, the weight loss in data set [3] is reported as above 20%. Also, the “anxiety in EPM” value in data set [4] is “increased anxiety”. In data set [5], the “cerebral lactate (AUC ratio vs vehicle)” value is recorded as “Significant increase”.
